The source made the active and inactive calls. The rule behind the calls is not given here.
System: CCRIS mutagenicity, Ames/micronucleus/aberration tests
Experiment: CCRIS mutagenicity studies
[1] = Test System: AMES SALMONELLA TYPHIMURIUM, Strain/Indicator: TA98, Metabolic Activation: NONE, Method: PREINCUBATION
[2] = Test System: AMES SALMONELLA TYPHIMURIUM, Strain/Indicator: TA98, Metabolic Activation: NONE, Method: STANDARD PLATE
[3] = Test System: AMES SALMONELLA TYPHIMURIUM, Strain/Indicator: TA100, Metabolic Activation: NONE, Method: PREINCUBATION
[4] = Test System: AMES SALMONELLA TYPHIMURIUM, Strain/Indicator: TA100, Metabolic Activation: NONE, Method: STANDARD PLATE
[5] = Test System: AMES SALMONELLA TYPHIMURIUM, Strain/Indicator: TA102, Metabolic Activation: NONE, Method: STANDARD PLATE

[Cl][Pd-2]([Cl])([Cl])[Cl]
mutagenic call (Test System: AMES SALMONELLA TYPHIMURIUM, Strain/Indicator: TA97A, Metabolic Activation: NONE, Method: STANDARD PLATE): inactive; negative | mutagenic call (Test System: AMES SALMONELLA TYPHIMURIUM, Strain/Indicator: TA97A, Metabolic Activation: RAT, LIVER, S-9, PHENOBARBITAL AND 5,6-BENZOFLAVONE, Method: STANDARD PLATE): inactive; negative | mutagenic call (Test System: AMES SALMONELLA TYPHIMURIUM, Strain/Indicator: TA97A, Metabolic Activation: RAT, LIVER, S-9, PHENOBARBITAL AND BETA-NAPHTHOFLAVONE, Method: STANDARD PLATE): inactive; negative | mutagenic call [1]: inactive; negative | mutagenic call [2]: inactive; negative | mutagenic call (Test System: AMES SALMONELLA TYPHIMURIUM, Strain/Indicator: TA98, Metabolic Activation: RAT, LIVER, S-9, AROCLOR 1254, Method: PREINCUBATION): inactive; negative | mutagenic call (Test System: AMES SALMONELLA TYPHIMURIUM, Strain/Indicator: TA98, Metabolic Activation: RAT, LIVER, S-9, PHENOBARBITAL AND 5,6-BENZOFLAVONE, Method: STANDARD PLATE): inactive; negative | mutagenic call (Test System: AMES SALMONELLA TYPHIMURIUM, Strain/Indicator: TA98, Metabolic Activation: RAT, LIVER, S-9, PHENOBARBITAL AND BETA-NAPHTHOFLAVONE, Method: STANDARD PLATE): inactive; negative | mutagenic call [3]: inactive; negative | mutagenic call [4]: inactive; negative | mutagenic call (Test System: AMES SALMONELLA TYPHIMURIUM, Strain/Indicator: TA100, Metabolic Activation: RAT, LIVER, S-9, AROCLOR 1254, Method: PREINCUBATION): inactive; negative | mutagenic call (Test System: AMES SALMONELLA TYPHIMURIUM, Strain/Indicator: TA100, Metabolic Activation: RAT, LIVER, S-9, PHENOBARBITAL AND 5,6-BENZOFLAVONE, Method: STANDARD PLATE): inactive; negative | mutagenic call (Test System: AMES SALMONELLA TYPHIMURIUM, Strain/Indicator: TA100, Metabolic Activation: RAT, LIVER, S-9, PHENOBARBITAL AND BETA-NAPHTHOFLAVONE, Method: STANDARD PLATE): inactive; negative | mutagenic call [5]: inactive; negative | mutagenic call (Test System: AMES SALMONELLA TYPHIMURIUM, Strain/Indicator: TA102, Metabolic Activation: RAT, LIVER, S-9, PHENOBARBITAL AND 5,6-BENZOFLAVONE, Method: STANDARD PLATE): inactive; negative | mutagenic call (Test System: AMES SALMONELLA TYPHIMURIUM, Strain/Indicator: TA102, Metabolic Activation: RAT, LIVER, S-9, PHENOBARBITAL AND BETA-NAPHTHOFLAVONE, Method: STANDARD PLATE): inactive; negative

CC(C)(C)c1cc(Cc2cc(C(C)(C)C)c(O)c(C(C)(C)C)c2)cc(C(C)(C)C)c1O
mutagenic call (Test System: AMES SALMONELLA TYPHIMURIUM, Strain/Indicator: TA97, Metabolic Activation: NONE, Method: STANDARD PLATE): inactive; negative | mutagenic call (Test System: AMES SALMONELLA TYPHIMURIUM, Strain/Indicator: TA97, Metabolic Activation: S-9, Method: STANDARD PLATE): inactive; negative | mutagenic call [2]: inactive; negative | mutagenic call (Test System: AMES SALMONELLA TYPHIMURIUM, Strain/Indicator: TA98, Metabolic Activation: S-9, Method: STANDARD PLATE): inactive; negative | mutagenic call [4]: inactive; negative | mutagenic call (Test System: AMES SALMONELLA TYPHIMURIUM, Strain/Indicator: TA100, Metabolic Activation: S-9, Method: STANDARD PLATE): inactive; negative | mutagenic call [5]: inactive; negative | mutagenic call (Test System: AMES SALMONELLA TYPHIMURIUM, Strain/Indicator: TA102, Metabolic Activation: S-9, Method: STANDARD PLATE): inactive; negative | mutagenic call (Test System: E.COLI, Strain/Indicator: WP2 (PKM101), Metabolic Activation: NONE, Method: STANDARD PLATE): inactive; negative | mutagenic call (Test System: E.COLI, Strain/Indicator: WP2 (PKM101), Metabolic Activation: S-9, Method: STANDARD PLATE): inactive; negative

C[C@@]1(CO)[C@H](O)CC[C@@]2(C)[C@H]1CC[C@H]1C[C@@H]3C[C@@]12CC[C@]3(O)CO
mutagenic call (End Point: In vitro chromosomal aberrations, Test System: Human (male) peripheral blood lymphocytes, Metabolic Activation: None): active; positive | mutagenic call (End Point: In vitro micronucleus, Test System: Human (male) peripheral blood lymphocytes, Metabolic Activation: None): active; positive; increased trend in all groups; effect depended on age and genetic stat | mutagenic call [5]: inactive; negative | mutagenic call (Test System: AMES SALMONELLA TYPHIMURIUM, Strain/Indicator: TA102, Metabolic Activation: RAT, LIVER, S-9, AROCLOR 1254, Method: STANDARD PLATE): inactive; negative | mutagenic call (Test System: MOUSE LYMPHOMA, Strain/Indicator: L5178Y (TK+/TK-), Metabolic Activation: NONE, Method: SUSPENSION/PLATE): active; positive | mutagenic call (Test System: UDS RODENT HEPATOCYTES, Strain/Indicator: THY INCORP (NON-S-PHASE), Metabolic Activation: NONE, Method: AUTORADIOGRAPHY): inactive; negative

O=C(Nc1cccc([N+](=O)[O-])c1)c1csc([N+](=O)[O-])c1
mutagenic call [2]: active; positive | mutagenic call [4]: active; positive

CCCCNC(=O)NS(=O)(=O)c1ccc(C)cc1
mutagenic call (End Point: IN VITRO CHROMOSOMAL ABERRATIONS, Test System: CHO-LB CELLS, Metabolic Activation: NONE): inactive; negative | mutagenic call (End Point: IN VITRO CHROMOSOMAL ABERRATIONS, Test System: CHO-LB CELLS, Metabolic Activation: RAT, LIVER, S-9, AROCLOR 1254): inactive; negative

O=C(O)c1c(Cl)cccc1Cl
mutagenic call [1]: inactive; negative | mutagenic call (Test System: AMES SALMONELLA TYPHIMURIUM, Strain/Indicator: TA98, Metabolic Activation: RAT LIVER S-9, PCB, Method: PREINCUBATION): inactive; negative | mutagenic call [3]: inactive; negative | mutagenic call (Test System: AMES SALMONELLA TYPHIMURIUM, Strain/Indicator: TA100, Metabolic Activation: RAT LIVER S-9, PCB, Method: PREINCUBATION): inactive; negative | mutagenic call (Test System: AMES SALMONELLA TYPHIMURIUM, Strain/Indicator: TA104, Metabolic Activation: NONE, Method: PREINCUBATION): inactive; negative | mutagenic call (Test System: AMES SALMONELLA TYPHIMURIUM, Strain/Indicator: TA104, Metabolic Activation: RAT LIVER S-9, PCB, Method: PREINCUBATION): inactive; negative | mutagenic call (Test System: E.COLI, Strain/Indicator: WP2 UVRA, Metabolic Activation: NONE, Method: PREINCUBATION): inactive; negative | mutagenic call (Test System: E.COLI, Strain/Indicator: WP2 UVRA, Metabolic Activation: RAT LIVER S-9, PCB, Method: PREINCUBATION): inactive; negative

Reference: PubChem BioAssay AID1259407 (Chemical Carcinogenesis Research Information System (CCRIS), 2018)
